The values below come from patent US20110045100A1, “Antimalarial Quinolines and Methods of Use Thereof” (GEORGETOWN UNIVERSITY, priority 2008, published 2011).

Molecules are shown by their SMILES.

One assay deals with hemozoin (Hz) formation. The assay is described as follows: Quantification of in vitro Hz formation inhibition. It is filed as biochemical. As for the experimental part: A stock solution of 5 mM hemin (Fluka) in 0.1M NaOH was prepared and stored as small aliquots at -20° C. Fresh aliquots were thawed daily to room temperature before use. Lecithin stock solutions were prepared by dissolving in distilled water to 10 mg/ml and similarly stored. 0.5 M propionate was used to buffer experiments in the pH range 5.2-5.6. The assay mixture (1 mL volumes) contained: 200 μL lecithin solution ([…] final) 20 μL hematin (100 μM final concentration) 20 μ[…] propionate buffer (X) μL drug (dependant on the concentration required 0-1000 μM). The addition sequence involved first adding the lecithin followed by heme, HCl, propionate buffer and finally the drug. Each sample was prepared in triplicate. Following addition of the reagents the samples were incubated at 37° C. with constant shaking for 18 h. After 18 h the assay was stopped by spinning the samples at 13,200 rpm for 10 minutes followed by carefully aspirating off the supernatant. The pellet was then resuspended in 50 mM bicarbonate buffer pH 9.0 (1 mL) and gently shaken at room temperature for 30 minutes to dissolve uncrystallized heme. The samples were then centrifuged as above and the supernatant removed. […] The samples were then dissolved in 0.1M NaOH to solubilize β-hematin to free heme and β-hematin formed was then quantified via heme absorbance at 402 nm. Calibration curves were prepared by titrating increasing amounts of heme in the same solvent vs. absorbance at 402 nm.

Assay [1] concerns Dd2 (chloroquine resistant strain of P. falciparum). The assay can be described thus: SYBR Green I antiplasmodial assay, strain Dd2. The format is cell-based, Plasmodium falciparum. Conditions: strain Dd2. An excerpt: Bennett T. N.; Paguio, M.; Gligorijevic, B.; Seudieu, C.; Kosar, A. D.; Davidson, E.; Roepe, P. D. Novel, rapid, and inexpensive cell-based quantification of antimalarial drug efficacy. Antimicrob. Agents Chemother. 2004, 48, 1807-1810; Smilkstein, M.; Sriwilaijaroen, N.; Kelly, J. X.; Wilairat, P.; Riscoe, M. Simple and inexpensive fluorescence-based technique for high-throughput antimalarial drug screening. Antimicrob. Agents Chemother. 2004, 48, 1803-1806; and Johnson, J. D.; Dennull, R. A.; Gerena, L.; Lopez-Sanchez, M.; Roncal, N. E.; Waters, N.C. Assessment and continued validation of the malaria SYBR green I-based fluorescence assay for use in malaria drug screening. Antimicrob. Agents Chemother. 2007, 51, 1926-1933. […] Drake, N. L.; Creech, H. J.; Garman, J. A.; Haywood, S. T.; Peck, R. M.; van Hook, J. O.; Walton, E. Synthetic antimalrials. The preparation of certain 4-aminoquinolines. J. Am. Chem. Soc. […] Trans. R. Soc. Trop. Med. Hyg. […] J. Parasitol. 1983, 69, 97-105. The selectivity index provides a quantitative measure of the antimalarial activity against CQR strains relative to that against sensitive strains and thus indicates promising drug discovery leads. […] This can be combined with the introduction of a third basic amino function which should further favor accumulation of the drug within the acidic food vacuole of the parasite.
The antiplasmodial activity of these compounds was measured versus a CQS (HB3) and a CQR (Dd2) strain using a standardized, inexpensive assay based on SYBR Green I intercalation. Bennett T. N.; Paguio, M.; Gligorijevic, B.; Seudieu, C.; Kosar, A. D.; Davidson, E.; Roepe, P. D. Antimicrob. Agents Chemother. 2004, 48, 1807-1810; Smilkstein, M.; Sriwilaijaroen, N.; Kelly, J. X.; Wilairat, P.; Riscoe, M. Antimicrob. Agents Chemother. 2004, 48, 1803-1806; and Johnson, J. D.; Dennull, R. A.; Gerena, L.; Lopez-Sanchez, M.; Roncal, N. E.; Waters, N.C. Antimicrob. Agents Chemother. 2007, 51, 1926-1933. […] De, D.; Krogstad, F. M.; Cogswell, F. B.; Krogstad, D. J. Am. J. Trop. Med. Hyg. 1996, 55, 579-583. […] The basic tertiary amino function in the side chain is commonly believed to be crucial for the accumulation of the drug within the acidic food DV.
Drug activities were assessed and IC50 were quantified essentially as described previously. Delarue, S.; Girault, S.; Maes, L.; Debreu-Fontaine, M. A.; Labaeid, M.; Grellier, P.; Sergheraert, C. Synthesis and in vitro and in vivo antimalarial activity of new 4-anilinoquinolines. J. Med. Chem. 2001, 44, 2827-2833; and O'Neill, P. M.; Willock, D. J.; Hawley, S. R.; Bray, P. G.; Storr, R. C.; Ward, S. A.; Park, B. K. Synthesis, antimalarial activity, and molecular modeling of tebuquine analogues. J. Med. Chem. 1997, 40, 437-448. The aminoquinolines were diluted using complete media under sterile conditions and plated in a 96 well plate format. Sorbitol synchronized cultures were utilized with >95% of the parasites at the ring stage. Cultures were diluted to give a working stock of 0.5% parasitemia and 2% hematocrit (final hematocrit 1% & 0.5% Parasitemia). The plates were incubated for 72 h at 37° C. After 72 h, 50 μL of 10×SYBR green I dye was added to each well, and the plate was incubated for 1 h at 37° C. Fluorescence was measured at 530 nm (490 nm excitation) using a spectra geminiEM plate reader. Data analysis was performed using sigma plot 9.0 software after downloading data in Excel format.

Another assay concerns μ-oxo dimeric heme. The assay is described as follows: Heme affinity measurement, μ-oxo dimeric heme. It is filed as binding. Conditions: aqueous solution. As for the experimental part: 1.5 mL cuvettes containing freshly prepared samples of 4.8 μM heme were titrated with increasing concentrations (0-50 μM) of drug. Following each addition, the sample was mixed and heme absorbance then recorded at 402 nm. Control experiments were performed by titrating 4.8 μM heme with similar volumes of solvent and no drug present. To measure affinity for μ-oxo dimeric heme, the procedure was similar except hemin was first converted to dimeric form in mild alkaline solution, followed by titration to pH 7.5 using Hepes buffer. The absorbance peak analysis was done using Microsoft excel and Ka were extracted from the ΔAbs402 plots via Scatchard analysis using Microsoft Excel and Sigma plot 9.0.1 software.

In the case of `CCN(CC)CCCCOc1ccnc2cc(Cl)ccc12` [compound 93, O-(7-Chloro-4-quinolyl)-4-(N,N-diethylamino)butanol], in the assay with hemozoin (Hz) formation, the “fold higher IC50 for Hz inhibition relative to 98” value is reported as “roughly 5 fold”. The “ability to inhibit Hz formation vs. that measured for CQ and 8” value in the assay with hemozoin (Hz) formation (FIG. 26) is listed as “significantly lower”. Further, the “fold lower IC50 relative to 98” value in assay [1] is 4 fold. The “affinity (association constant Ka) vs. μ-oxo dimer” value in the assay on μ-oxo dimeric heme is “quite similar”.
